The results in this text go back to patent publication US20210269447A1, “NOVEL AMINO-IMIDAZOPYRIMIDINE DERIVATIVES AS JANUS KINASE INHIBITORS AND PHARMACEUTICAL USE THEREOF” (LEO Pharma A/S, priority 2018, published 2021).

The structures appear in SMILES notation.

In assay [1] the target is T1, Human baculovirus-expressed tyrosin kinase (TYK) 2 (Homo sapiens, UniProt P29597).
T1 construct: JAK1 (aa 850-1154) and TYK2 (aa 871-1187) are expressed with an N-terminally fused GST-tag; GST (N); purchased Carna Biosciences, Inc 08-147; host or cells: baculovirus expression system
T1 sequence (P29597 871-1187): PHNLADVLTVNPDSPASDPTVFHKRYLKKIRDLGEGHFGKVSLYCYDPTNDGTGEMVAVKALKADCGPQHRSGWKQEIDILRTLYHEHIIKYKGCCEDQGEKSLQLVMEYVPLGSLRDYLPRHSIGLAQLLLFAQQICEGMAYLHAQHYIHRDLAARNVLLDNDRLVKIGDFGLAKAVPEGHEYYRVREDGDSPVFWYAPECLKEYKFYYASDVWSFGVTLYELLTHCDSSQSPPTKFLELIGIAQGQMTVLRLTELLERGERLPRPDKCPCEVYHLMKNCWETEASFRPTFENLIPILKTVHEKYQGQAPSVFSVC
Description: TYK2 kinase assay (HTRF). The class given is biochemical. The following applies: catalytic domain, ATP at Km (13 μM), 20 min. Here is the method:
(§1) Human baculovirus-expressed Janus kinase (JAK) 1, 2, 3 and tyrosin kinase (TYK) 2 were purchased from Carna Biosciences, Inc (#08-144, -045, -046, -147 resp.). All four purified enzymes contain only the catalytic domain. JAK1 (aa 850-1154) and TYK2 (aa 871-1187) are expressed with an N-terminally fused GST-tag, and JAK2 and JAK3 with an N-terminally fused His-tag. Inhibition of phosphorylation of a synthetic peptide was measured in an HTRF-based assay (CisBio #62TKOPEC). First, 75 nL of test compound solution (100% DMSO) was added to a white shallow 384-well plate (NUNC #264706) using a Labcyte ECHO 550 liquid handler. Thereafter, 1 μL of compound dilution buffer (50 mM HEPES, 0.05% bovine serum albumin) and 2 μL of TK solution (TK substrate-biotin in kinase buffer [1× enzymatic buffer from HTRFKinEASE TK kit, 1 mM DTT]) was added. Then, 5 μL kinase-ATP mix (prepared in kinase buffer) was added to the wells and the plates were incubated at RT for 20 (JAK2, 3 and TYK2) to 40 (JAK1) min. For all four kinases a concentration of ATP that corresponded to the Km for ATP was used. The final concentrations of buffers, substrate, kinase and ATP were: JAK1: 50 mM Hepes buffer pH 7.0, 0.01% BSA, 10 mM MgCl2, 1 mM DTT, 7 μM ATP, 50 nM SEB, 1 μM TK Substrate-Biotin and 5 ng JAK1; JAK2: 50 mM Hepes buffer pH 7.0, 0.01% BSA, 5 mM MgCl2, 1 mM DTT, 4 μM ATP, 1 μM TK Substrate-Biotin and 0.1 ng JAK2; JAK3: 50 mM Hepes buffer pH 7.0, 0.01% BSA, 5 mM MgCl2, 1 mM DTT, 2 μM ATP, 1 μM TK Substrate-Biotin and 0.3 ng JAK3; TYK2: 50 mM Hepes buffer pH 7.0, 0.01% BSA, 5 mM MgCl2, 1 mM DTT, 13 μM ATP, 50 nM SEB, 1 μM TK Substrate-Biotin and 0.8 ng TYK2. […] A PerkinElmer Envision reader was used to quantify the HTRF signal using the following filters; 320 nm excitation filter, 665 nm emission filter and a 615 nm 2nd emission filter. A ratio ((665/615)×104) was calculated for each well.
(TR-FRET usually uses a lanthanide donor and a delayed reading to cut background.)

The subject of another assay is STAT6 bla-RA1 cells. The assay is described as follows: STAT6 Assay. The class given is cell-based. The following applies: stimulated with recombinant human interleukin 4 10 ng/mL; CD40 ligand; beta-lactamase reporter. Here is the method: Twenty-five μL of a STAT6 bla-RA1 (Invitrogen #K1243) cell suspension was seeded with a density of 30-40,000 cells/well in 384-well Black View-plates (PerkinElmer #6007460) with clear bottom in assay medium (Opti-MEM (Invitrogen #11058-021)+0.5% heat inactivated fetal bovine Serum (Invitrogen #10082-147)+1% non-essential amino acids (Invitrogen #11140-050)+1% sodium pyruvate (Invitrogen #11360-070)+1% penicillin/streptomycin (Invitrogen #15140-122)); containing 550 ng/mL of CD40 ligand (Invitrogen #PHP0025). The cell plates were incubated overnight in a humidified 37° C. air/CO2 (95%/5%) incubator. The following day, 125 nL of solutions of test compounds and reference compounds were transferred to cell plates using the Labcyte Echo 550 liquid handler. The plates were then incubated for 1 h in a humidified 37° C. air/CO2 (95%/5%) incubator. Hereafter recombinant human interleukin 4 (Invitrogen #PHC0045) were added to the plates also using the Labcyte Echo 550 to a final concentration of 10 ng/mL. The cells were then incubated for 4½-5 h in a humidified 37° C. air/CO2 (95/b/5%) incubator. 8 μL of LiveBLAzer substrate mixture (Invitrogen #K1095) were then added to the assay plates, which were incubated overnight at RT. Fluorescence was then measured: Excitation: 405 nm; Emission: 460 nm (green channel), Emission: 535 nm (blue channel). Background was subtracted in both emission channels and the ratio 460/535 nm was calculated for each well.

A further assay concerns STAT5 irfi-bla TF1 cells. Description: STAT5 Assay. The class given is cell-based. The following applies: TF-1; stimulated with recombinant human erythropoietin (EPO) 10 ng/mL; beta-lactamase reporter. Here is the method:
Twenty-five μL of a STAT5 irfi-bla TF1 (Invitrogen #K1219) cell suspension was seeded with a density of about 10,000 cells/well in 384-well Black View-plates (PerkinElmer #6007460) with clear bottom in assay medium (Opti-MEM (Invitrogen #11058-021)+0.5% heat inactivated fetal bovine Serum (Invitrogen #10082-147)+1% non-essential amino acids (Invitrogen #11140-050)+1% sodium pyruvate (Invitrogen #11360-070)+1% penicillin/streptomycin (Invitrogen #15140-122)). The cell plates were incubated overnight in a humidified 37° C. air/CO2 (95%/5%) incubator. The following day, 125 nL of solutions of test compounds and reference compounds were transferred to cell plates using the Labcyte Echo 550 liquid handler. The plates were then incubated for 1 h in a humidified 37° C. air/CO2 (95%/5%) incubator. Hereafter recombinant human erythropoietin (EPO) (Invitrogen #PHC9634) was added to the plates also using the Labcyte Echo 550 to a final concentration of 10 ng/mL. The cells were then incubated for 4½-5 h in a humidified 37° C. air/CO2 (95%/5%) incubator. 8 μL of LiveBLAzer substrate mixture (Invitrogen #K1095) were then added to the assay plates, which were then incubated overnight at RT. Fluorescence was then measured: Excitation: 405 nm; Emission: 460 nm (green channel), Emission: 535 nm (blue channel). Background was subtracted in both emission channels and the ratio 460/535 nm was calculated for each well.

Assay [2] deals with T2, Human baculovirus-expressed Janus kinase (JAK) 2 (Homo sapiens, UniProt O60674).
T2 construct: All four purified enzymes contain only the catalytic domain; His-tag (N); purchased Carna Biosciences, Inc 08-045; host or cells: baculovirus expression system
T2 sequence (O60674 849-1124 limits assumed): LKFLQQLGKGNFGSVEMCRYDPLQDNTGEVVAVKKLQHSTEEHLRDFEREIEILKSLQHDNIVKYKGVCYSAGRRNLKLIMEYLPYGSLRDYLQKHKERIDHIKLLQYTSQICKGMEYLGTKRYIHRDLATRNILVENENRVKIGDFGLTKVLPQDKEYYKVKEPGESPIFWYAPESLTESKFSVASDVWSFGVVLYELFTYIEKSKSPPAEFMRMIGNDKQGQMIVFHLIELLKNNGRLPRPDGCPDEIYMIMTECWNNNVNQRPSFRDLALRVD
The assay is described as follows: JAK2 kinase assay (HTRF). In kind it is biochemical. The following applies: catalytic domain, ATP at Km (4 μM), 20 min. The method, then:
as §1

In assay [3] the target is T3, Human baculovirus-expressed Janus kinase (JAK) 3 (Homo sapiens, UniProt P52333).
T3 construct: All four purified enzymes contain only the catalytic domain; His-tag (N); purchased Carna Biosciences, Inc 08-046; host or cells: baculovirus expression system
T3 sequence (P52333 822-1111 limits assumed): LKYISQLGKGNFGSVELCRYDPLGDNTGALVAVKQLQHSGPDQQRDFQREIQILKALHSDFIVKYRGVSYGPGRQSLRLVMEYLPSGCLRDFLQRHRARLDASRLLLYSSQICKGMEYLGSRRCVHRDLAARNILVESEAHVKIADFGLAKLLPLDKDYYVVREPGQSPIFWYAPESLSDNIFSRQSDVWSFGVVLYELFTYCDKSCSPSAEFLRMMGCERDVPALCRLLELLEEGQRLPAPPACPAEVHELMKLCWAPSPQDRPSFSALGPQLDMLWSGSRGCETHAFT
The assay is described as follows: JAK3 kinase assay (HTRF). In kind it is biochemical. The following applies: catalytic domain, ATP at Km (2 μM), 20 min. The method, then:
as §1

The target in assay [4] is T4, Human baculovirus-expressed Janus kinase (JAK) 1 (Homo sapiens, UniProt P23458).
T4 construct: JAK1 (aa 850-1154) and TYK2 (aa 871-1187) are expressed with an N-terminally fused GST-tag; GST (N); purchased Carna Biosciences, Inc 08-144; host or cells: baculovirus expression system
T4 sequence (P23458 850-1154): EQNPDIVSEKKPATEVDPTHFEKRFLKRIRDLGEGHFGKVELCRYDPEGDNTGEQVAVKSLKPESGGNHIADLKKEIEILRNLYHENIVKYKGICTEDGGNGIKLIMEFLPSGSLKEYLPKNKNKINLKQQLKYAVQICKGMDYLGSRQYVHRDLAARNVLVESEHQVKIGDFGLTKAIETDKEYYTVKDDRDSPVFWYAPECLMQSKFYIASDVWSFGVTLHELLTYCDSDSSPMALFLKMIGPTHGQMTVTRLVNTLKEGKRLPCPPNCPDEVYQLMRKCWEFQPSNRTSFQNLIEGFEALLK
Description: JAK1 kinase assay (HTRF). The class given is biochemical. The settings on record: catalytic domain, ATP at Km (7 μM), 40 min. Here is the method: as §1

Turning to `CNc1ncc2nc(C(C)O)n([C@H]3CC[C@H](CC#N)CC3)c2n1` (mixture of isomers) [Compound 2, 2-[trans-4-[8-(1-Hydroxyethyl)-2-(methylamino)purin-9-yl]cyclohexyl]acetonitrile], the EC50 (commonly the concentration at which the effect is half-maximal) in assay [1] amounted to 47 nM; in the assay with STAT6 bla-RA1 cells it was 213 nM; with STAT5 irfi-bla TF1 cells, 12.8 µM; in assay [2], 274 nM; in assay [3], 798 nM; in assay [4], 9 nM.
`CNc1ncc2nc([C@@H](C)O)n([C@H]3CC[C@H](CC#N)CC3)c2n1` [Compound 1, 2-[trans-4-[8-[(1R)-1-Hydroxyethyl]-2-(methylamino)purin-9-yl]cyclohexyl]acetonitrile]: the EC50 turned out to be 19 nM in assay [1]; 146 nM in the assay on STAT6 bla-RA1 cells; 5.19 µM in the assay on STAT5 irfi-bla TF1 cells; 157 nM in assay [2]; 602 nM in assay [3]; 5 nM in assay [4].
Take `[2H]C([2H])([2H])Nc1ncc2nc([C@@H](C)O)n([C@H]3CC[C@H](CC#N)CC3)c2n1` [Compound 3, 2-[trans-4-[8-[(1R)-1-Hydroxyethyl]-2-(trideuteriomethylamino)purin-9-yl]cyclohexyl]acetonitrile]: the concentration for a half-maximal effect (EC50) in assay [1] stood at 13 nM; in the assay with STAT6 bla-RA1 cells it was 142 nM; in the assay with STAT5 irfi-bla TF1 cells, 4.87 µM; in assay [2] it was 129 nM; in assay [3] it was 510 nM; in assay [4], 3 nM.
